Results on one compound are retold here after article PMC6522912, “Evaluation of the published kinase inhibitor set to identify multiple inhibitors of bacterial ATP-dependent mur ligases” (Journal of Enzyme Inhibition and Medicinal Chemistry, 2019).

For one assay, the target named is MurD from E. coli (Escherichia coli, UniProt P14900). In words: Steady-state kinetic analysis on MurD. Type of assay: biochemical. Particulars: for Ki: Ki (µM). As for the experimental part: For compound 1, Ki values were determined against MurD from E. coli. Ki determinations were performed under similar conditions to those described for the MurD inhibition assay, where different concentration of one substrate and a fixed concentration of the other two were used. First, the concentration of UMA was varied (10, 20, 40, 80 µM) at fixed ATP (400 µM) and D-Glu (100 µM), then the concentration of D-Glu was varied (50, 100, 200, 400 µM) at fixed ATP (400 µM) and UMA (80 µM), and finally, the concentration of ATP was varied (100, 200, 400, 800 µM) at fixed UMA (80 µM) and D-Glu (100 µM). The concentrations of 1 were 0, 15, 30, 60, 90, 120, 180 and 250 µM. After a 15 min incubation, 100 µM Biomol green reagent was added, and the absorbance was read at 650 nm after 5 min. All of the experiments were run in triplicate. The data were analysed using the SigmaPlot 12.0 software. The initial velocities were fitted to competitive, non-competitive, uncompetitive and mixed enzyme inhibition. The Ki and mode of inhibition from the best ranking model were used, as provided by the software.
Chain of MurD from E. coli (P14900 whole entry): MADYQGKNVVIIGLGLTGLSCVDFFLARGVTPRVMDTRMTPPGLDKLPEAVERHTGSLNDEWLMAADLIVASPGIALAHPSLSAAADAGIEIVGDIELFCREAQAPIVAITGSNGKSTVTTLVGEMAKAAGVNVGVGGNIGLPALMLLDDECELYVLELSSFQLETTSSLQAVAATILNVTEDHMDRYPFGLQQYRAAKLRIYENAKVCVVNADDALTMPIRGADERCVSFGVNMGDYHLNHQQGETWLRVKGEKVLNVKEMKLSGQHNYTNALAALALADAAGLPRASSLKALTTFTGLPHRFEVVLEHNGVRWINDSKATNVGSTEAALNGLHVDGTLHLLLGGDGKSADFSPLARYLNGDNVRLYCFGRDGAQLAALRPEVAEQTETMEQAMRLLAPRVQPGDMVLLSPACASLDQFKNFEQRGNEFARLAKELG

Another assay addresses MurD (Escherichia coli, UniProt P14900). In words: 1H/13C HSQC NMR study of ligand binding. To be noted: chemical shift perturbations, without and with 2 mM AMP-PCP. As for the experimental part:
The nuclear magnetic resonance (NMR) spectra were recorded at 25 °C on a spectrometer (DirectDrive 800 MHz; Varian, Slovenian NMR centre at National Institute of Chemistry) equipped with a cryoprobe. The pulse sequences provided in the Varian BioPack library of pulse programmes was used. The samples were prepared in 90% H2O/10% DMSO-d6 buffer containing 20 mM HEPES, 7 mM (NH4)2SO4, 3.5 mM MgCl2, and 2 mM dithiothreitol, pH 7.2. Here, 0.07 mM MurD that was selectively labelled with ^13 C at the methyl groups of Ile (δ1 only), Val and Leu was used. The protein was titrated using compound 1 in MurD:ligand molar ratios of 0.5, 1, 2, 4 and 8, without and with 2 mM β,γ-methyleneadenosine 5'-triphosphate (AMP–PCP). […] The final concentration of DMSO-d6 was 12% (v/v). The variation of DMSO from 10 to 12% (v/v) affects the chemical shift perturbations by <0.02 ppm[31].
The heteronuclear single quantum coherence (HSQC) spectra for ^1H/^13C were acquired with 1024 data points in t2, 32 scans, 64 complex points in t1, and relaxation delay of 1 s. […] The spectra were processed and analysed with the Felix 2007 software package (Felix NMR Inc., Laboratory of Biomolecular Structure at National Institute of Chemistry). […] The combined ^1H/^13C chemical shift perturbations (Δδ) were calculated from the ^1H and ^13C chemical shift perturbations using Equation (1)[32]: (1) Δδ=((Δδ^1H)^2+(0.252×Δδ^13C)^2)^1/2. […]

A further assay has as its target E. coli MurE (Escherichia coli, UniProt P22188). In words: Malachite green inhibition assay, MurE. Type of assay: biochemical. As to the method: Inhibition of the Mur ligases was determined using the malachite green assay, with slight modifications.
MurE: 50 mM Hepes, pH 8.0, 15 mM MgCl2, 0.005% Triton X-114, 60 µM meso-diaminopimelic acid, 100 µM uridine-5′-diphosphate-N-acetylmuramoyl-L-alanine-D-glutamate, 1000 µM ATP, and purified E. coli MurE[27].
In all cases, the final concentration of DMSO was 5% (v/v). After incubation for 15 min at 37 °C, the enzyme reaction was terminated by addition of 100 µM Biomol green reagent, and the absorbance was measured at 650 nm after 5 min. All of the experiments were run in duplicate. Residual activities were calculated with respect to control assays without the tested compounds, but with the 5% DMSO carrier.
The published kinase inhibitor set compounds were evaluated for inhibition of MurC, D and F ligases from E. coli using the Malachite green assay, which detects orthophosphate generated during enzymatic reactions. To avoid non-specific inhibition due to aggregate formation, all of the compounds were tested in the presence of detergent (0.005% Triton-X114). The data are presented as the residual activities of these Mur ligases in the presence of 100 µM of each test compound (Supporting Information Table S1). […]. The IC50 values against MurC, D, E and F were determined for the selected hit compounds – one representative compound from each structural class was chosen: compound 1[33], aza-stilbene derivative; compound 2[34], alkynyl pyrimidine; compound 3[35], pyrazolo [1,5]-b]pyridazine; compound 4[36], phenoxypyrimidine; compound 5[37], 4,6-bis-anilino-1H-pyrrolo[2,3-pyrimidine (Table 1). […]. […] Among the hits, compounds for further mechanistic studies were chosen on the basis of their ligand efficiency. Ligand efficiency quantifies the molecular properties, particularly size and lipophilicity and is used as a selection criterion for structurally different compounds as more ‘efficient’ ligands have the potential to control for the inflation of these properties[38] Thus ligand efficiencies were calculated for the four hits (Supporting Information Table S2)[39]^,[40], and compound 1 was selected as the most promising for additional studies. Additionally, regarding the data of profiled compounds in large panels of human kinase assays[41] […] To provide sufficient amounts of compound 1 for kinetic and NMR studies, it was resynthesized according to the synthetic procedures (Figure 2) described in the literature.

Structures are written as SMILES.

Chain of E. coli MurE (P22188 whole entry): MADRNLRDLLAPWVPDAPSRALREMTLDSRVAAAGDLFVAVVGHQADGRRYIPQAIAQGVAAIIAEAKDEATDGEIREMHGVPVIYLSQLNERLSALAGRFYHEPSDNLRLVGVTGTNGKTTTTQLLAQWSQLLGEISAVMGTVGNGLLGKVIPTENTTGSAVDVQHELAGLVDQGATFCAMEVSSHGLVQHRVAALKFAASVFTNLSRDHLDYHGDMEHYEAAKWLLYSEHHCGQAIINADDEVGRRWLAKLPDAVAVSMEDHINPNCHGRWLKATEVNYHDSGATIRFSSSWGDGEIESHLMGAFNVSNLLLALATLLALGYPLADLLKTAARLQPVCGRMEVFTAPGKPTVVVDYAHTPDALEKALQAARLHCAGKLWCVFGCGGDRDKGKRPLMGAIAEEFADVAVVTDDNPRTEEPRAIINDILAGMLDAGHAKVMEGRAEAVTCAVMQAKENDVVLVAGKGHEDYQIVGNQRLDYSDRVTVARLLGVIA
Chain of MurD (P14900 whole entry): as the sequence (P14900 whole entry) above

What is called Ki is a dissociation constant, usually derived from enzyme kinetics or from competition with a known ligand. What is called IC50 is the midpoint of a concentration-inhibition curve. On to `Cc1cc(-c2ccco2)cc(C)c1/C=C/c1cncc(-c2nn[nH]n2)c1` [Compound 1], for which the Ki on MurD from E. coli (substrate ATP varied, fixed D-Glu 100 µM, UMA 80 µM) was 18.7 ± 2.6 µM; on MurD from E. coli (substrate D-Glu varied, fixed ATP 400 µM, UMA 80 µM), 65.5 ± 4.9 µM; at MurD from E. coli (substrate UMA varied, fixed ATP 400 µM, D-Glu 100 µM) it was 14.8 ± 11.2 µM. In addition, the Inhibition mechanism entry at MurD from E. coli (versus substrate ATP) is listed as “Mixed (full)”; at MurD from E. coli (versus substrate D-Glu) it was “Competitive (full)”; at MurD from E. coli (versus substrate UMA), “Mixed (partial)”. Further, the “binding site on MurD” value on MurD is “binds to the D-Glu binding site”. This compound had an IC50 against E. coli MurE of 79 µM. For the same compound, the “RA (%) MurE” value at E. coli MurE (Table S3, aza stilbene compounds) worked out at 49%. Besides, the “MurE RA [%]” value on E. coli MurE (residual activity at 100 µM compound, Table 1) is recorded as 49%.
